Assay [1] deals with T1, P2X purinoceptor 7 (Homo sapiens) (UniProt Q99572).
T1 sequence (whole entry): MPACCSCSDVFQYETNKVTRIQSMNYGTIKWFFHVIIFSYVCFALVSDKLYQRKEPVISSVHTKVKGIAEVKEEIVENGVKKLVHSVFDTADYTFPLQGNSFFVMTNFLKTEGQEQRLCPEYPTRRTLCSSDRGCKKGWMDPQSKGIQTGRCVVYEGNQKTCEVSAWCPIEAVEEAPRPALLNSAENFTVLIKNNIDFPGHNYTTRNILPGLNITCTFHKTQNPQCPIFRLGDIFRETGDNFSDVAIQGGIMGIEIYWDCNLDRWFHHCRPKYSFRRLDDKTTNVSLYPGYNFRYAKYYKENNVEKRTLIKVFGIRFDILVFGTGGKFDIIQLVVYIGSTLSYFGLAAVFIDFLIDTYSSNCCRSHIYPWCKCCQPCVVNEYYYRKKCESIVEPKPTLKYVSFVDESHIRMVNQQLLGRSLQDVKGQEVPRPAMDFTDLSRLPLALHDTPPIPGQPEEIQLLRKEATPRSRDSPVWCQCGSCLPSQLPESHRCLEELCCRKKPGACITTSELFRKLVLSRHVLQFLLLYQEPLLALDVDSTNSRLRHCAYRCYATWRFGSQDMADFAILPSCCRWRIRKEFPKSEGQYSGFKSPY
The experiment in a line: Antagonist activity against ATP-gated P2X7 receptor in LPS-stimulated human PBMC assessed as reduction in P2X7 agonist 2'(3')-O-(4-benzoylbenzoyl) adenosine 5'-triphosphate-induced IL-1beta at 1 uM incubated for 30 mins after 1 hr pre-treatment with LPS followed by Bz-ATP-stimulation for 1.5 hrs by ELISA. More on the design: scale not given: the % may be the effect or the level left.

Assay [2] has as its target T1, P2X purinoceptor 7 (Homo sapiens). In words: Antagonist activity against ATP-gated P2X7 receptor in LPS-stimulated human PBMC assessed as reduction in P2X7 agonist 2'(3')-O-(4-benzoylbenzoyl) adenosine 5'-triphosphate-induced IL-1beta at 10 uM incubated for 30 mins after 1 hr pre-treatment with LPS followed by Bz-ATP-stimulation for 1.5 hrs by ELISA. More on the design: scale not given: the % may be the effect or the level left. For orientation: In an ELISA, binding on a coated surface is turned into a signal by an enzyme label.

The next assay addresses T2, P2X purinoceptor 7 (Rattus norvegicus, UniProt Q64663).
T2 sequence (Q64663 whole entry): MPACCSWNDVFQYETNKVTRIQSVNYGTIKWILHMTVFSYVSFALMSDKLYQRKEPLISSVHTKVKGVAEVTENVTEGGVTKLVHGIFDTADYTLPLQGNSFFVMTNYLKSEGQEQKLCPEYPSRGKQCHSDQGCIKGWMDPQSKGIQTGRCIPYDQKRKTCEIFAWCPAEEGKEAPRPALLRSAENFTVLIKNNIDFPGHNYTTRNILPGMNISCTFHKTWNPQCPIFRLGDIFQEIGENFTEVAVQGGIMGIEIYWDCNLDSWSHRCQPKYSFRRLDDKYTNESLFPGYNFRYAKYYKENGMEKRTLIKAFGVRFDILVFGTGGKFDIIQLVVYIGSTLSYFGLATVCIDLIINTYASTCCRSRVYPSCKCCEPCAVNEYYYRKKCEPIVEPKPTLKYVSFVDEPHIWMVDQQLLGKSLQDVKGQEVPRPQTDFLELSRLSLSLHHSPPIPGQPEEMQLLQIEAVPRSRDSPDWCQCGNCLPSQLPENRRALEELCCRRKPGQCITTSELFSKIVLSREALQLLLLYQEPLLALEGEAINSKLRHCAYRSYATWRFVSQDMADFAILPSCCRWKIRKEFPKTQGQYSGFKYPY
In words: Antagonist activity against rat recombinant ATP-gated P2X7 receptor expressed in human 1321N1 cells assessed as reduction in BzATP -induced Ca2+ flux pre-incubated for 30 mins before BzATP addition by calcium-4 dye based FLIPR assay. Type of assay: cell-based. On the technique in general: Calcium assays in cells follow changes in intracellular calcium, usually with a dye or a luminescent sensor.

Turning to `O=C(c1cccc(C(F)(F)F)c1Cl)N1CCc2c(ncnc2-c2ccccn2)C1`, the Activity in assay [1] turned out to be 26.9%. With `O=C(c1cccc(Cl)c1Cl)N1CCc2c(ncnc2-n2nccn2)C1`, the Activity in assay [1] is 71.8%. Take `Cc1nc2c(c(-c3c(C)noc3C)n1)CCN(C(=O)c1cccc(C(F)(F)F)c1Cl)C2`: the Activity in assay [1] came out at 104%; in assay [2], 100%. Consider `Cc1nc2c(c(-c3ccn[nH]3)n1)C[C@@H](C)N(C(=O)c1ccc(F)c(C(F)(F)F)c1Cl)C2` (single isomer, unassigned), for which, in assay [2], the Activity is -6.1%. Regarding `O=C(c1cccc(Cl)c1Cl)N1CCc2c(ncnc2-c2ccn[nH]2)C1`, the Activity in assay [1] was found to be 14.2%.

As usually defined, the IC50 is the midpoint of a concentration-inhibition curve. For the compound `COc1cccc(C(=O)N2Cc3nc(C)nc(-c4ccn[nH]4)c3CC2C)c1F` (stereo not drawn), the Activity in assay [2] was 2%. Also, the IC50 at P2X purinoceptor 7 turned out to be 1460 nM.

Source of the values: ChEMBL document CHEMBL3808324, “Promising Therapeutic Potential of P2X7 Modulators” (ACS Med Chem Lett, 2016).
